According to article PMC11638965, “Leveraging Dual-Ligase Recruitment to Enhance Protein Degradation via a Heterotrivalent Proteolysis Targeting Chimera” (Journal of the American Chemical Society, 2024):
Entries after “also recorded” stand apart in the source; their conditions may differ. Read-outs that look alike come from different tables or passages of the source.

Key:
[1] = target: BRD4 (Homo sapiens, UniProt O60885); assay: Live cell kinetic HiBiT degradation assay, HiBiT-BRD4 HEK293 cells (parental, CRBN KO, VHL KO); type: cell-based; details: for EC50: HiBiT-BRD4 CRISPR knock-in HEK293 cells, live cell kinetic degradation, 24 h, read-out: Dmax 50 BRD4; for λmax BRD4 (degradation rate): HiBiT-BRD4 knock-in HEK293 cells; for on-target BRD4 degradation activity (in words): parental, CRBN KO and VHL KO HiBiT-BRD4 HEK293 cells (Figure S5)
How it was run: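 Endogenous N-terminal HiBiT-BRD4 HEK293 cells stably expressing LgBiT (parental, CRBN KO, VHL KO) in CO2-independent medium with Endurazine, pre-equilibrated 3 h at 37 °C. Luminescence read every 7 min for 24 h after PROTAC addition (threefold series), normalized to pre-read and DMSO. Dmax = lowest reading; rate from one-phase decay; Dmax50 from Dmax-vs-concentration fit.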

[2] = test system: RKO WT cells; assay: cells; type: cell-based, human; details: Homo sapiens
[3] = WT RKO, 316 pM to 10 μM, n = 3 (Table S4), read-out: EC50 RKO
[4] = 72 h, 500 pM to 10 μM, 3 days (Figure 10, Table S6), read-out: EC50 RKO WT

fold increase in degradation of BRD4 (Dmax 50) vs matched pair ([1]; 23 vs 1, 26 vs 23, 30 vs 2, HiBiT-BRD4 HEK293 cells) [fold] | EC50 [1] [nM] | λmax BRD4 (degradation rate) [1] [h⁻¹] | EC50 [2, 3] [nM] | EC50 [2, 4] [nM] | EC50 ([2]; RKO, span over RKO WT, CRBN KO, VHL KO and CRBN/VHL dKO (Figure 10), read-out: EC50s in each WT, KO and dKO RKO cell line) [nM] | Compound | on-target BRD4 degradation activity (in words) ([1]; listed as 94) | on-target BRD4 degradation activity (in words) [1]
6.7 | 8.2 | 1.76 | 369 | – | – | Cc1ncsc1-c1ccc(CNC(=O)[C@@H]2C[C@@H](O)CN2C(=O)[C@@H](NC(=O)COCC(C)(COCCOCCNc2cc3c(cc2F)C(=O)N(C2CCC(=O)NC2=O)C3=O)COCCOCCOC(=O)C[C@@H]2N=C(c3ccc(Cl)cc3)c3c(sc(C)c3C)-n3c(C)nnc32)C(C)(C)C)cc1 (mixture of isomers) [AB3125 (30), (14S)-8-((2-(2-((2-(2,6-dioxopiperidin-3-yl)-6-fluoro-1,3-dioxoisoindolin-5-yl)amino)ethoxy)ethoxy)methyl)-14-((2S,4R)-4-hydroxy-2-((4-(4-methylthiazol-5-yl)benzyl)carbamoyl)pyrrolidine-1-carbonyl)-8,15,15-trimethyl-12-oxo-3,6,10-trioxa-13-azahexadecyl 2-((S)-4-(4-chlorophenyl)-2,3,9-trimethyl-6H-thieno[3,2-f][1,2,4]triazolo[4,3-a][1,4]diazepin-6-yl)acetate] | – | –
– | 4 | 1.69 | 195 | – | – | Cc1ncsc1-c1ccc(CNC(=O)[C@@H]2C[C@@H](O)CN2C(=O)[C@@H](NC(=O)COCC(C)(COCCOCCNc2cc3c(cc2F)C(=O)N(C2CCC(=O)NC2=O)C3=O)COCCOCCOCCOC(=O)C[C@@H]2N=C(c3ccc(Cl)cc3)c3c(sc(C)c3C)-n3c(C)nnc32)C(C)(C)C)cc1 (mixture of isomers) [AB3126 (29), (17S)-11-((2-(2-((2-(2,6-dioxopiperidin-3-yl)-6-fluoro-1,3-dioxoisoindolin-5-yl)amino)ethoxy)ethoxy)methyl)-17-((2S,4R)-4-hydroxy-2-((4-(4-methylthiazol-5-yl)benzyl)carbamoyl)pyrrolidine-1-carbonyl)-11,18,18-trimethyl-15-oxo-3,6,9,13-tetraoxa-16-azanonadecyl 2-((S)-4-(4-chlorophenyl)-2,3,9-trimethyl-6H-thieno[3,2-f][1,2,4]triazolo[4,3-a][1,4]diazepin-6-yl)acetate] | – | –
– | – | – | – | 48 | – | Cc1ncsc1-c1ccc([C@H](C)NC(=O)[C@@H]2C[C@H](O)CN2C(=O)[C@@H](NC(=O)COCC(C)(COCCOCCOCCNc2cc3c(cc2F)C(=O)N(C2CCC(=O)NC2=O)C3=O)COCCOCCOCCOC(=O)C[C@@H]2N=C(c3ccc(Cl)cc3)c3c(sc(C)c3C)-n3c(C)nnc32)C(C)(C)C)cc1 (mixture of isomers) [cis-AB3067 (94), (17S)-11-((2-(2-(2-((2-(2,6-dioxopiperidin-3-yl)-6-fluoro-1,3-dioxoisoindolin-5-yl)amino)ethoxy)ethoxy)ethoxy)methyl)-17-((2S,4S)-4-hydroxy-2-(((S)-1-(4-(4-methylthiazol-5-yl)phenyl)ethyl)carbamoyl)pyrrolidine-1-carbonyl)-11,18,18-trimethyl-15-oxo-3,6,9,13-tetraoxa-16-azanonadecyl 2-((S)-4-(4-chlorophenyl)-2,3,9-trimethyl-6H-thieno[3,2-f][1,2,4]triazolo[4,3-a][1,4]diazepin-6-yl)acetate] | inactive in CRBN KO cells; also recorded: increase in degradation potency relative to 27 in both parental and VHL KO cells | –
– | – | – | – | 594 | 522 to 657 | Cc1ncsc1-c1ccc([C@H](C)NC(=O)[C@@H]2C[C@H](O)CN2C(=O)[C@@H](NC(=O)COCC(C)(COCCOCCOCCNc2cc3c(cc2F)C(=O)N(C2CCC(=O)N(C)C2=O)C3=O)COCCOCCOCCOC(=O)C[C@@H]2N=C(c3ccc(Cl)cc3)c3c(sc(C)c3C)-n3c(C)nnc32)C(C)(C)C)cc1 (mixture of isomers) [neg-cis-AB3067 (95), (17S)-11-((2-(2-(2-((6-fluoro-2-(1-methyl-2,6-dioxopiperidin-3-yl)-1,3-dioxoisoindolin-5-yl)amino)ethoxy)ethoxy)ethoxy)methyl)-17-((2S,4S)-4-hydroxy-2-(((S)-1-(4-(4-methylthiazol-5-yl)phenyl)ethyl)carbamoyl)pyrrolidine-1-carbonyl)-11,18,18-trimethyl-15-oxo-3,6,9,13-tetraoxa-16-azanonadecyl 2-((S)-4-(4-chlorophenyl)-2,3,9-trimethyl-6H-thieno[3,2-f][1,2,4]triazolo[4,3-a][1,4]diazepin-6-yl)acetate] | – | no degradation of BRD4 in any of the cell lines
